Tests used:
ADH = ADH activity (NADH production rate, absorbance at 340 nm) in HH cell homogenate; assay type: biochemical, human; conditions: in the presence of the organic compound
Description: Hepatoma cells (Huh7 and HepG2) were used as negative controls. (B) The relative ADH activity of HH were assessed in the absence of organic compounds (NT), as well as in the presence of DMSO or DMSO2 using the same method described in (A).

HH [1] = assay: Screen of organic compounds as DMSO substitution: morphology and hepatocyte marker gene expression of recovered HH; assay type: cell-based, human; conditions: substitution for DMSO, additional 7 and 14 days culture
From the text: Then, total cell lysates were subjected to immunoblotting analysis for the detection of indicated molecules. NT; non treatment.
Then, HH was subjected to immunofluorescent analysis for the detection of MRP2 (Arrowheads), F-actin, DAPI. The bar indicates 25 μm.
In search of the DMSO substitution, we screened numerous organic compounds. The list of chemicals (Table 3) is selected based on the shared characteristics with DMSO, such as but not limited to the molecular size, solubility to the cell culture medium, stability at the standard temperature (melting and boiling temperatures), feasibility in handling (no significant chemical hazardous concern), and the cost. […] With the highest possible concentration, recovered HH (7 days old) were cultured for additional 7 and 14 days with refreshing of the medium at a frequency of every 3-4 days. On day 14 and 21, cells were subjected to the morphological and cell fate assessment along with the functional assessment (FIGS. 7 and 8).

CYP2E1 [2] = assay type: cell-based; conditions: human, 7 days
Description: FIG. 9 show the impact of DMSO on the inducibility of CYP genes. Freshly isolated HHs were cultured for 7 days with HH recovery media (dHCGM) followed by the maintenance/application medium containing DMSO or DMSO2 for another 7 days in the presence of indicated concentration of CYP3A4 inducers ([…] and carbamazepine) (left) and CYP2El inducers (ethanol and isoniazid) (right). Then, and total RNA and cell lysates were subjected to immunoblotting analysis (left) and qPCR analysis (right) to determine the inducibility of indicated molecules.

CYP3A4 [3] = assay: CYP3A4 expression and inducibility in HH (immunoblotting); assay type: cell-based, human; conditions: HH cultured with DMSO2, 7-day treatment
From the text: Then, and total RNA and cell lysates were subjected to immunoblotting analysis (left) and qPCR analysis (right) to determine the inducibility of indicated molecules. Graph bars represent mean±SD; *, ** and *** indicate p<0.05 and p<0.01 and p<0.001 by one-way ANOVA.

HH [4] = conditions: HH cultured with DMSO2-containing medium, only when tight-sealing apparatus is applied
From the text: Due to the high volatility of ethanol, it evaporates rapidly at a much higher rate that the rate of hepatocytes metabolizes.

HH [5] = assay: Role of DMSO in the cell fate recovery of freshly isolated HH; assay type: cell-based, human; conditions: 7 days
From the text: Then, HH were subjected to (A) immunofluorescent analysis for the detection of MRP2 (Arrowheads), (B) immunoblotting and (C) qPCR analysis for the detection of indicated hepatocytes marker molecules at the indicated time points.

CYP2E1 [6] = target: CYP2E1 (Homo sapiens, UniProt P05181); assay: CYP2E1 activity, Vivid CYP2E1 Blue Screening Kit; conditions: in the presence of the organic compound
CYP2E1 (Homo sapiens, UniProt P05181), sequence (P05181 whole entry): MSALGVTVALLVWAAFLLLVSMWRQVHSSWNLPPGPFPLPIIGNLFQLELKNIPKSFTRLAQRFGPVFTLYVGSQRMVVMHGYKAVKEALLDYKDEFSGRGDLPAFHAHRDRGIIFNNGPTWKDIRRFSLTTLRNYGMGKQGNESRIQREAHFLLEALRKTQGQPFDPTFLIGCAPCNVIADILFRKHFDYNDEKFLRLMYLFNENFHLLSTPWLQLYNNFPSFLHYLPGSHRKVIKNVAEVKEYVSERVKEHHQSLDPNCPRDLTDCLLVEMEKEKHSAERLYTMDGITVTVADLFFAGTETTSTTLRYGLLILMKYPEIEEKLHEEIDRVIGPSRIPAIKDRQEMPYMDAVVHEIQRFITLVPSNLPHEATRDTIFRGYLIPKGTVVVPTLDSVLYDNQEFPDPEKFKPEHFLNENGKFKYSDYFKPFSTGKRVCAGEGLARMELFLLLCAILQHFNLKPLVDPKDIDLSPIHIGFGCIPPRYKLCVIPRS
Description: (§1) Then, cells were used for the assessment of CYP3A4 (left), and CYP2A9 (middle) activity in the presence of organic compounds (DMSO or DMSO2) using P450-Glo™ Assays (Promega). For the assessment of CYP2E1 activity (right) was assessed using Vivid™ CYP2E1 Blue Screening Kit (Thermo Fisher). Graph bars represent mean±SD; *, ** and *** indicate p<0.05 and p<0.01 and p<0.001 by one-way ANOVA; n.s, not significant; n.d., not detected.
For the assessment of CYP2E1 activity (right) was assessed using VividTM CYP2E1 Blue Screening Kit (Thermo Fisher).

CYP3A4 [7] = target: T1, CYP3A4 (Homo sapiens, UniProt P08684); assay: CYP3A4 activity in cultured HH, P450-Glo Assays; assay type: in vitro ADME; conditions: in the presence of the organic compound
T1 construct: endogenous in cells; host or cells: freshly isolated human hepatocytes (HH) in culture
T1 sequence (P08684 whole entry): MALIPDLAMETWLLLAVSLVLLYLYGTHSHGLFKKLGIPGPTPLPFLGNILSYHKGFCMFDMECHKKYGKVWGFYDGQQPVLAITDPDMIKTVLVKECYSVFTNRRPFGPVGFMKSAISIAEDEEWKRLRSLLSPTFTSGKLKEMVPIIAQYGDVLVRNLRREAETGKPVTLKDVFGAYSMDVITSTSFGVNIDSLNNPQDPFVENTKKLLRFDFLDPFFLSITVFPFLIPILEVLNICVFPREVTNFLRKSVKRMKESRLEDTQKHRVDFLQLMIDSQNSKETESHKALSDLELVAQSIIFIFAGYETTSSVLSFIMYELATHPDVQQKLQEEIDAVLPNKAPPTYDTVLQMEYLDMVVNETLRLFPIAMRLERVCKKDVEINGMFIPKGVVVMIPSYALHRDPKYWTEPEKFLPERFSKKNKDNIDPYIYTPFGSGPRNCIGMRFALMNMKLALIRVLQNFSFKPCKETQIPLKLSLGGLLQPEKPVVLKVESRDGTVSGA
Description: as §1

CYP2A9 = CYP2A9 (Homo sapiens, UniProt P11712); conditions: HH, in the presence of the organic compound
CYP2A9, sequence (P11712 whole entry): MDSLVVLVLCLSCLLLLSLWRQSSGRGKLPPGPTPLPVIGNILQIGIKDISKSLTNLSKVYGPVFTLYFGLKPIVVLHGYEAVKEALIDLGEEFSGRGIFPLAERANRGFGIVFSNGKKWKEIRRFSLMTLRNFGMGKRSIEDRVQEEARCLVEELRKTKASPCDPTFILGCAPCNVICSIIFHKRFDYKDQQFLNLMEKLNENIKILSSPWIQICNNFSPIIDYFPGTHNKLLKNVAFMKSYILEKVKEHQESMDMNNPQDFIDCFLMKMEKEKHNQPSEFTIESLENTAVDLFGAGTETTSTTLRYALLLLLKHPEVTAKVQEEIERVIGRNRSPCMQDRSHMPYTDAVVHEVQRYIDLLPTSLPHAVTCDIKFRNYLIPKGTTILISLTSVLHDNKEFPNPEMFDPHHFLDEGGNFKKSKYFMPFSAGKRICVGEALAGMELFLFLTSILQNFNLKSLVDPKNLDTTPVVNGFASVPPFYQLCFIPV
Description: as §1

HH [8] = assay: Withdrawal of DMSO from recovered HH: MRP2 immunofluorescence, immunoblotting, qPCR; assay type: cell-based, human; conditions: after 7 days recovery, additional 4 days
From the text: Then, HH were subjected to (A) immunofluorescent analysis for the detection of MRP2 (Arrowheads), (B) immunoblotting and (C) qPCR analysis for the detection of indicated hepatocytes marker molecules. The bar indicates 25 μm.

HH [9] = assay: Ethanol metabolism to acetate by cultured HH (Acetate Colorimetric Assay Kit); assay type: cell-based; conditions: 10 mM ethanol, 24 hours, sealing apparatus, compared with human liver
Description: Then, HH were cultured with either DMSO or DMSO2 containing maintenance/application medium in the absence (0 mM) or presence of 10 mM ethanol for 24 hours. The sealing apparatus was applied throughout the course of ethanol treatment. At the end of the ethanol treatment, cell culture medium was harvested followed by the measurement of acetate concentration using Acetate Colorimetric Assay Kit (Biovision). […] The rate of acetate production was normalized by the cell number of the […] in order to assess the comparability of EtOH metabolizing capacity of HH with each given condition to that of the health human liver (right).

Structure (SMILES) | effect on ADH activity / ADH pathway (ADH) | maintenance of morphology and marker genes expression of recovered HH (HH [1]) | CYP2E1 induction by inducer (CYP2E1 [2]) | effect on metabolic activity of CYP2E1 / CYP2E1 pathway (CYP2E1 [6]) | effect on metabolic activity of CYP3A4 (CYP3A4 [7]) | other results
[O-][S+]1CCCC1 [TMSO, Tetramethylene sulfoxide] | inhibition of alcohol metabolism enzymes | capable of maintaining the morphology and the marker genes expression at a level comparable to that of DMSO-containing medium |  |  |  | 
NNC(=O)c1ccncc1 [Isoniazid] |  |  | lack of CYP2E1 induction |  |  | 
NC(=O)N1c2ccccc2C=Cc2ccccc21 [Carbamazepine] |  |  |  |  |  | CYP3A4 induction by inducer (CYP3A4 [3]): CYP3A4 induction in a dose dependent manner
CCO [Ethanol] |  |  | lack of CYP2E1 induction |  |  | lipid droplet accumulation in HH (HH [4]): accumulation of lipid droplet (LD)
C[S+](C)[O-] [DMSO, dimethyl sulfoxide] | inhibition of ADH activity |  |  | reciprocal changes were also seen in CYP2E1 | potently prohibits | recovery of HH from cell injury and stress when cultured without DMSO during Phase 1 (HH [5]): would not promote the recovery; effect on CYP2A9 activity (CYP2A9): inhibition of DMPK enzymes; effect of withdrawal of DMSO on hepatocytic function and morphology (HH [8]): rapid deterioration of the hepatocytic function and morphology; ethanol metabolism by HH (acetate production) (HH [9]): inhibition of ethanol metabolism to the production of acetate
CS(C)(=O)=O [DMSO2, dimethyl sulfone] |  | capable of maintaining the morphology and the marker genes expression at a level comparable to that of DMSO-containing medium |  | substantially less than that of DMSO-containing medium | substantially less than that of DMSO-containing medium | 
